Measurements reported in patent publication US20050148653A1, “Polymaleimide compounds and their medical use” (priority 2001, published 2005).

Key:
[1] = system: Chlamydia trachomatis; experiment: Chlamydia assay: transient treatment of Chlamydia with maleimides, infection of McCoy cells, iodine-stained inclusions counted; type: cell-based; conditions: for IODINE-STAINED INCLUSIONS/FIELD F1: field 1; for IODINE-STAINED INCLUSIONS/FIELD F2: field 2; for IODINE-STAINED INCLUSIONS/FIELD F3: field 3; for IODINE-STAINED INCLUSIONS/FIELD F4: field 4; for IODINE-STAINED INCLUSIONS/FIELD F5: field 5; for MEAN COUNT/FIELD (iodine-stained inclusions): mean of 5 fields; for COMMENTS: inclusions seen on entire coverslip: re-examined under low power; for TOTAL COUNT/FIELDS (iodine-stained inclusions): sum of 5 fields; for inhibition of the infection of McCoy cells with chlamydia: transient exposure of chlamydia to compound
Experimental: Purified Chlamydia trachomatis (250 μl) was added to 250 μl of each compound concentration and the mixtures incubated at room temperature for 5 minutes. The tubes were then centrifuged (15000 rpm, 15 minutes), the supernatant decanted and the pellet washed serum free MEM (with 0.5 mls). This step was repeated and the resultant pellet resuspended MEM (in 0.5 ml) and inoculated into a confluent shell vial (coverslip) cultures of McCoy cells. The cultures were centrifuged (3000 rpm, 1 hour at 37° C.) and incubated for a further 2 hours prior to being changed onto MEM with 10% foetal calf serum, I μg/rl cycloheximide, 0.5% added glucose, vancomycin, streptomycin and amphoteracin B (Fungizone). The cultures were incubated for 68 hours, fixed in methanol and stained with Lugol's iodine. 3 replicates of each positive control (with and without DMSO) were included, as well as 2 uninoculated cell controls. Each coverslip culture was examined using low power (10×) objective to ensure that inclusions were evenly distributed and 5 high power (×40) fields were selected at random from different areas of the coverslip. Iodine stained inclusions were counted. Where no inclusions were seen on high power, the culture was re-examined under low power. Table 1. Effect of Transient Treatment with maleimides on Chlamydia Infection of McCoy Cell In Vitro. Chlamydia was pre-treated with each of the indicated maleimides for 5 minutes and the compound removed by centrifugation. McCoy cells were then exposed to the compound pre-treated chlamydia for 68 hours and inclusions counted following staining of cells with Lugols iodine.

[2] = system: HIV (IHV-1RF); experiment: Anti-viral (virucidal) assay: plate-bound HIV treated 10 minutes, C8166 cells added, syncytium score and XTT; type: cell-based; conditions: for Syncytia score day 5 (quadruplicate wells) / Syncytia score day 6 (quadruplicate wells): C8166 cells; for Mean Optical Readings at 450 nm: XTT cell viability; for Syncytia score day 6 (quadruplicate wells) / Mean Optical Readings at 450 nm / IC50: day 6; for IC50: XTT, virus treated 10 minutes, read-out: IC50 (virucidal)
Experimental: HIV was attached to the surface of 96-well cell culture plates using 100 μl of 50 μg/ml poly-L-lysine hydrobromide (PLL) of molecular weight >300 K for 1 h at RT. The outer wells were left uncoated and filled with 250 μl of PBS to counteract the effects of evaporation. The coated wells were washed twice with PBS and 25 μl of RPMI 1640 medium containing 5×10^3 TCID50 of IHV-1RF was added and incubated for 1 h at RT. The wells were then washed twice with PBS and 25 μl of varying concentrations of the test compounds made up with serum free medium (containing a constant 10% DMSO) were added to the wells in quadruplicate and the plates incubated at 37° C. for 10 minutes. The wells were again washed twice with PBS and 5×10^4 C8166 cells in a volume of 300 μl distributed to each well and the plates incubated for 5 and 6 days respectively. On days 5 and 6 the cells were assessed microscopically for the presence of cytopathic effect (syncytium formation) and recorded. In order to quantify the cytopathic effect, XIT which is metabolised by viable but not dead cells, was added and the absorbance read at 450 nm after […] incubation at 37° C.
An assessment of viral cytopathic effect was made microscopically on days 5 and 6, but the end point of the experiment was on day 6 when the level of virus infection (as determined by cell viability) was quantified by the use of XTT.

[3] = final conc 0.02 (M), working conc 0.04 (M)
[4] = final conc 0.4 (M), working conc 0.8 (M)
[5] = final conc 1 (M), working conc 2 (M), 5 minutes pre-treatment, McCoy cells 68 hours
[6] = final conc 1 (M), working conc 2 (M)
[7] = Human immunodeficiency virus 1, C8166

O=C1C=CC(=O)N1CCN1C(=O)C=CC1=O [Compound 1, ethyl bis-maleimide]
IODINE-STAINED INCLUSIONS/FIELD F1 [1, 3]: 0 inclusions/field | IODINE-STAINED INCLUSIONS/FIELD F2 [1, 3]: 0 inclusions/field | IODINE-STAINED INCLUSIONS/FIELD F3 [1, 3]: 0 inclusions/field | IODINE-STAINED INCLUSIONS/FIELD F4 [1, 3]: 0 inclusions/field | IODINE-STAINED INCLUSIONS/FIELD F5 [1, 3]: 0 inclusions/field | MEAN COUNT/FIELD (iodine-stained inclusions) [1, 3]: 0 inclusions/field | COMMENTS: inclusions seen on entire coverslip [1, 3]: 6 inclusions | TOTAL COUNT/FIELDS (iodine-stained inclusions) [1, 3]: 0 | IODINE-STAINED INCLUSIONS/FIELD F1 [1, 4]: 0 inclusions/field | IODINE-STAINED INCLUSIONS/FIELD F2 [1, 4]: 0 inclusions/field | IODINE-STAINED INCLUSIONS/FIELD F3 [1, 4]: 0 inclusions/field | IODINE-STAINED INCLUSIONS/FIELD F4 [1, 4]: 0 inclusions/field | IODINE-STAINED INCLUSIONS/FIELD F5 [1, 4]: 0 inclusions/field | MEAN COUNT/FIELD (iodine-stained inclusions) [1, 4]: 0 inclusions/field | COMMENTS: inclusions seen on entire coverslip [1, 4]: No | TOTAL COUNT/FIELDS (iodine-stained inclusions) [1, 4]: 0 | IODINE-STAINED INCLUSIONS/FIELD F1 [1, 5]: 0 inclusions/field | IODINE-STAINED INCLUSIONS/FIELD F2 [1, 6]: 0 inclusions/field | IODINE-STAINED INCLUSIONS/FIELD F3 [1, 6]: 0 inclusions/field | IODINE-STAINED INCLUSIONS/FIELD F4 [1, 6]: 0 inclusions/field | IODINE-STAINED INCLUSIONS/FIELD F5 [1, 6]: 0 inclusions/field | MEAN COUNT/FIELD (iodine-stained inclusions) [1, 6]: 0 inclusions/field | COMMENTS: inclusions seen on entire coverslip [1, 6]: No | TOTAL COUNT/FIELDS (iodine-stained inclusions) [1, 6]: 0 | inhibition of the infection of McCoy cells with chlamydia [1]: dose-dependent inhibition | Syncytia score day 5 (quadruplicate wells) ([2]; Conc 0.003 mM): ++++ (50-100% syncytia) | Syncytia score day 6 (quadruplicate wells) ([2]; Conc 0.003 mM): ++++ (50-100% syncytia) | Mean Optical Readings at 450 nm ([2]; Conc 0.003 mM): 0.4875 | Syncytia score day 5 (quadruplicate wells) ([2]; Conc 0.01 mM): ++++ (50-100% syncytia) | Syncytia score day 6 (quadruplicate wells) ([2]; Conc 0.01 mM): ++++ (50-100% syncytia) | Mean Optical Readings at 450 nm ([2]; Conc 0.01 mM): 0.5028 | Syncytia score day 5 (quadruplicate wells) ([2]; Conc 0.03 mM): ++++ (50-100% syncytia) | Syncytia score day 6 (quadruplicate wells) ([2]; Conc 0.03 mM): ++++ (50-100% syncytia) | Mean Optical Readings at 450 nm ([2]; Conc 0.03 mM): 0.5142 | Syncytia score day 5 (quadruplicate wells) ([2]; Conc 0.1 mM): ++++ (50-100% syncytia) | Syncytia score day 6 (quadruplicate wells) ([2]; Conc 0.1 mM): ++++ (50-100% syncytia) | Mean Optical Readings at 450 nm ([2]; Conc 0.1 mM): 0.5347 | Syncytia score day 5 (quadruplicate wells) ([2]; Conc 0.3 mM): +++ (25-50% syncytia) | Syncytia score day 6 (quadruplicate wells) ([2]; Conc 0.3 mM): +++ (25-50% syncytia) | Mean Optical Readings at 450 nm ([2]; Conc 0.3 mM): 0.5853 | Mean Optical Readings at 450 nm ([2]; Conc 1 mM): 1.181 | IC50 [2, 7]: 1000 µM

O=C1C=CC(=O)N1c1ccc(OCCOCCOCCOCCOc2ccc(N3C(=O)C=CC3=O)cc2)cc1 [Compound 2, PEG(5) bis phenyl bis maleimide]
IODINE-STAINED INCLUSIONS/FIELD F1 [1, 3]: 3 inclusions/field | IODINE-STAINED INCLUSIONS/FIELD F2 [1, 3]: 2 inclusions/field | IODINE-STAINED INCLUSIONS/FIELD F3 [1, 3]: 6 inclusions/field | IODINE-STAINED INCLUSIONS/FIELD F4 [1, 3]: 5 inclusions/field | IODINE-STAINED INCLUSIONS/FIELD F5 [1, 3]: 7 inclusions/field | MEAN COUNT/FIELD (iodine-stained inclusions) [1, 3]: 5 inclusions/field | TOTAL COUNT/FIELDS (iodine-stained inclusions) [1, 3]: 23 | IODINE-STAINED INCLUSIONS/FIELD F1 [1, 4]: 1 inclusions/field | IODINE-STAINED INCLUSIONS/FIELD F2 [1, 4]: 2 inclusions/field | IODINE-STAINED INCLUSIONS/FIELD F3 [1, 4]: 2 inclusions/field | IODINE-STAINED INCLUSIONS/FIELD F4 [1, 4]: 1 inclusions/field | IODINE-STAINED INCLUSIONS/FIELD F5 [1, 4]: 5 inclusions/field | MEAN COUNT/FIELD (iodine-stained inclusions) [1, 4]: 2 inclusions/field | TOTAL COUNT/FIELDS (iodine-stained inclusions) [1, 4]: 11 | IODINE-STAINED INCLUSIONS/FIELD F1 [1, 5]: 0 inclusions/field | IODINE-STAINED INCLUSIONS/FIELD F2 [1, 6]: 0 inclusions/field | IODINE-STAINED INCLUSIONS/FIELD F3 [1, 6]: 0 inclusions/field | IODINE-STAINED INCLUSIONS/FIELD F4 [1, 6]: 0 inclusions/field | IODINE-STAINED INCLUSIONS/FIELD F5 [1, 6]: 0 inclusions/field | MEAN COUNT/FIELD (iodine-stained inclusions) [1, 6]: 0 inclusions/field | COMMENTS: inclusions seen on entire coverslip [1, 6]: 6 inclusions | TOTAL COUNT/FIELDS (iodine-stained inclusions) [1, 6]: 0 | inhibition of the infection of McCoy cells with chlamydia [1]: dose-dependent inhibition | Syncytia score day 5 (quadruplicate wells) ([2]; Conc 0.003 mM): ++++ (50-100% syncytia) | Syncytia score day 6 (quadruplicate wells) ([2]; Conc 0.003 mM): ++++ (50-100% syncytia) | Mean Optical Readings at 450 nm ([2]; Conc 0.003 mM): 0.4883 | Syncytia score day 5 (quadruplicate wells) ([2]; Conc 0.01 mM): ++++ (50-100% syncytia) | Syncytia score day 6 (quadruplicate wells) ([2]; Conc 0.01 mM): ++++ (50-100% syncytia) | Mean Optical Readings at 450 nm ([2]; Conc 0.01 mM): 0.4895 | Syncytia score day 5 (quadruplicate wells) ([2]; Conc 0.03 mM): ++++ (50-100% syncytia) | Syncytia score day 6 (quadruplicate wells) ([2]; Conc 0.03 mM): ++++ (50-100% syncytia) | Mean Optical Readings at 450 nm ([2]; Conc 0.03 mM): 0.4928 | Syncytia score day 5 (quadruplicate wells) ([2]; Conc 0.1 mM): ++++ (50-100% syncytia) | Syncytia score day 6 (quadruplicate wells) ([2]; Conc 0.1 mM): ++++ (50-100% syncytia) | Mean Optical Readings at 450 nm ([2]; Conc 0.1 mM): 0.4983 | Syncytia score day 5 (quadruplicate wells) ([2]; Conc 0.3 mM): +++ (25-50% syncytia) | Syncytia score day 6 (quadruplicate wells) ([2]; Conc 0.3 mM): ++++ (50-100% syncytia) | Mean Optical Readings at 450 nm ([2]; Conc 0.3 mM): 0.5092 | Mean Optical Readings at 450 nm ([2]; Conc 1 mM): 0.9895 | IC50 [2, 7]: ~1000 µM | inhibition at 1000 µM ([2]; Human immunodeficiency virus 1, C8166, at 1 mM): ~50%
